The values that follow come from patent publication US6653300B2, “Pyrazole compounds useful as protein kinase inhibitors” (Vertex Pharmaceuticals Incorporated, priority 2000, dated 2003).

In one data set the target is T1, GSK-3β (AA 1-420) (Homo sapiens, UniProt P49841).
T1 construct: GSK-3β (AA 1-420)
The data set is described as follows: Ki determination for the inhibition of GSK-3 (coupled enzyme system). It counts as biochemical. To be noted: 20 μM ATP, 20 nM GSK-3β, 30° C. Summed up: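 GSK-3β (AA 1-420, 20 nM) was run in a pyruvate kinase/LDH-coupled NADH assay in 100 mM HEPES pH 7.5, 10 mM MgCl2, 25 mM NaCl, 1 mM DTT, 1.5% DMSO, with 300 μM phosphopeptide substrate. Compound (0.002–30 μM) was preincubated 10 min at 30° C, then 20 μM ATP was added.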

Another data set addresses T2, Aurora-2 (Homo sapiens, UniProt O14965).
T2 sequence (O14965 1-403): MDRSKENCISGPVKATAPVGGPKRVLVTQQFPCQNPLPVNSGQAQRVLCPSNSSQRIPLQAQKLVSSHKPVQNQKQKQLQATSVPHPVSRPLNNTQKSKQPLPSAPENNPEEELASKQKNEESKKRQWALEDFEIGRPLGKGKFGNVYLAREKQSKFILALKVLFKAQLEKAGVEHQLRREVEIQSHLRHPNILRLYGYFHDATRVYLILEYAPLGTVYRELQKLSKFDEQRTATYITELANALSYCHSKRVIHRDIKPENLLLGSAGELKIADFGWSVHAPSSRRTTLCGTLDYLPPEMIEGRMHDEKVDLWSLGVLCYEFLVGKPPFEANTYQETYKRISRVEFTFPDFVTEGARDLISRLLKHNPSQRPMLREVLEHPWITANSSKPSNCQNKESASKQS
Description: Ki determination for the inhibition of Aurora-2 (coupled enzyme assay). It counts as biochemical. To be noted: 70 nM Aurora-2, 30° C. Summed up: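 Ki came from reaction rates plotted against inhibitor concentration, with rates taken as A340 decrease over 5 min at 30° C. Enzyme (70 nM final) was added after 10 min compound preincubation; stock buffer held […], 800 μM LRRASLG, PK/LDH coupling, pH 7.5.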

Another data set concerns the target T3, human Src kinase (Homo sapiens, UniProt P12931).
T3 construct: full length recombinant human Src kinase (from Upstate Biotechnology, cat. no. 14-117); purchased Upstate Biotechnology 14-117; host or cells: baculo viral cells
Description: SRC inhibition assay (radioactivity-based or spectrophotometric assay). The conditions noted are these: recombinant human Src kinase, assay A or B. In kind it is biochemical. How it is done: The compounds were evaluated as inhibitors of human Src kinase using either a radioactivity-based assay or spectrophotometric assay. The compounds were assayed as inhibitors of full length recombinant human Src kinase (from Upstate Biotechnology, cat. no. 14-117) expressed and purified from baculo viral cells. […] P-0275). […] In a typical assay, all the reaction components with the exception of ATP were pre-mixed and aliquoted into assay plate wells. […] The assay plate was incubated at 30° C. for 10 min before initiating the reaction with ^33P-ATP. After 20 min of reaction, the reactions were quenched with 150 μl of 10% trichloroacetic acid (TCA) containing 20 mM Na3PO4. The quenched samples were then transferred to a 96-well filter plate (Whatman, UNI-Filter GF/F Glass Fiber Filter, cat no. 7700-3310) installed on a filter plate vacuum manifold. Filter plates were washed four times with 10% TCA containing 20 mM Na3PO4 and then 4 times with methanol. 200 μl of scintillation fluid was then added to each well. The plates were sealed and the amount of radioactivity associated with the filters was quantified on a TopCount scintillation counter. The radioactivity incorporated was plotted as a function of the inhibitor concentration. The data was fitted to a competitive inhibition kinetics model to get the Ki for the compound. The ADP produced from ATP by the human recombinant Src kinase-catalyzed phosphorylation of poly Glu-Tyr substrate was quanitified using a coupled enzyme assay (Fox et al (1998) Protein Sci 7, 2249). In this assay one molecule of NADH is oxidised to NAD for every molecule of ADP produced in the kinase reaction. The disappearance of NADH can be conveniently followed at 340 nm. […] In a typical assay, all the reaction components with the exception of ATP were pre-mixed and aliquoted into assay plate wells. […] The absorbance change at 340 nm with time, the rate of the reaction, was monitored on a molecular devices plate reader. The data of rate as a function of the inhibitor concentration was fitted to competitive inhibition kinetics model to get the Ki for the compound.

pKi: −log10 of the molar value. Read-outs that look alike come from different tables or passages of the source. A value given as a limit tells only on which side of the number the result lay.

T3 sequence (P12931 whole entry): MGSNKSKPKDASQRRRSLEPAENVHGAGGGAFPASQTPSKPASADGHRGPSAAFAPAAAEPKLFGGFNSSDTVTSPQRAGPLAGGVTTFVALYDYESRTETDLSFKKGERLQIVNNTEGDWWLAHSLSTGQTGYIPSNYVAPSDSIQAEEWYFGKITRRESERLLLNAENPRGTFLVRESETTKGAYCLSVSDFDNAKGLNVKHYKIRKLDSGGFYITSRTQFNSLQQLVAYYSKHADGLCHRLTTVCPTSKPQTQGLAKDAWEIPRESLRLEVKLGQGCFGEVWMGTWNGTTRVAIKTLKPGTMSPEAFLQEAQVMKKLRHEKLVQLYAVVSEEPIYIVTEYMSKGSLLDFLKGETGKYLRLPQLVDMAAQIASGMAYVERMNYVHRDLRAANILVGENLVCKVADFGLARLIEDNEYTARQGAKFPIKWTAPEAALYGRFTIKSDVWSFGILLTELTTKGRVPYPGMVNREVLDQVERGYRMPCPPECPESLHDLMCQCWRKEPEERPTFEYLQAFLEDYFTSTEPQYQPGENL
T1 sequence (P49841 whole entry, the tested form may be a part): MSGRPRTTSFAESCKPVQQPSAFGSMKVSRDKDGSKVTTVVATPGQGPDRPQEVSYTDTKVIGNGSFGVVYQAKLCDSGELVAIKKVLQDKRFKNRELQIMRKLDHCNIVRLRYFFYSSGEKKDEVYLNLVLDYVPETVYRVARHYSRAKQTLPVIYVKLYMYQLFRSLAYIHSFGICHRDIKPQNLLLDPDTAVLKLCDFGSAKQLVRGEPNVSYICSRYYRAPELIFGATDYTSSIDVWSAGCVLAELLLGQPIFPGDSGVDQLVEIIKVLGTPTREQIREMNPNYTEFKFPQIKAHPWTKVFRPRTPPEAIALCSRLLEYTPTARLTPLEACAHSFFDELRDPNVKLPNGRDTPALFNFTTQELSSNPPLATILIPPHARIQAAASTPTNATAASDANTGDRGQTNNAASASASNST

As to `Cc1cc(Nc2nc(Sc3ccc(C(=O)NCCN4CCOCC4)cc3)nc3ccccc23)n[nH]1` [IIa-65, (5-Methyl-2H-pyrazol-3-yl)-{2-[4-(2-morpholin-4-yl-ethylcarbamoyl)-phenylsulfanyl]-quinazolin-4-yl}-amine], the melting point was 246 to 248 °C. The same compound showed a pKi at GSK-3β (AA 1-420) of 5.15 to 6.00. Besides, the negative logarithm of the Ki (pKi) on Aurora-2 is 6.00 to 7.00. The pKi at human Src kinase (read-out: Ki value for SRC) was 5.22 to 6.00.

Compound `Cc1cc(Nc2nc(Sc3ccc(NC(=O)CN(C)C)cc3)nc3ccccc23)n[nH]1` [IIa-68, {2-[4-(2-Dimethylamino-acetylamino)-phenylsulfanyl]-quinazolin-4-yl}-(5-methyl-2H-pyrazol-3-yl)-amine] came in with a melting point of 241 to 243 °C. Moreover, at GSK-3β (AA 1-420), the pKi is 5.15 to 6.00. At Aurora-2, this compound had a pKi greater than 7.00. Besides, the pKi at human Src kinase (read-out: Ki value for SRC) was 5.22 to 6.00.

Turning to `Cc1cc(Nc2nc(Sc3ccc(NC(=O)CCN(C)C)cc3)nc3ccccc23)n[nH]1` [IIa-71, {2-[4-(3-Dimethylamino-propionylamino)-phenylsulfanyl]-quinazolin-4-yl}-(5-methyl-2H-pyrazol-3-yl)-amine], the melting point is 280 °C (dec.). Also, the pKi on GSK-3β (AA 1-420) was 5.15 to 6.00. The same compound gave a pKi at Aurora-2 greater than 7.00. At human Src kinase (read-out: Ki value for SRC), the negative-log Ki (pKi) is 5.22 to 6.00.

On to `CC(=O)Nc1ccc(Sc2nc(Nc3cc(C)[nH]n3)c3ccc(O)cc3n2)cc1` [IIa-74, [2-(4-Acetamidophenylsulfanyl)-7-hydroxy-quinazolin-4-yl]-(5-methyl-2H-pyrazol-3-yl)-amine], for which the melting point is 246 to 248 °C. At GSK-3β (AA 1-420), this compound showed a negative-log Ki (pKi) of 5.15 to 6.00. Moreover, the pKi on Aurora-2 is greater than 7.00. Moreover, the negative logarithm of the Ki (pKi) at human Src kinase (read-out: Ki value for SRC) was 5.22 to 6.00.

The compound `CNCC(=O)Nc1ccc(Sc2nc(Nc3cc(C)[nH]n3)c3ccccc3n2)cc1` [IIa-77, {2-[4-(2-Methylamino-acetylamino)-phenylsulfanyl]-quinazolin-4-yl}-(5-methyl-2H-pyrazol-3-yl)-amine] returned a melting point of 242 to 244 °C. This compound showed a pKi on GSK-3β (AA 1-420) of 5.15 to 6.00. At Aurora-2, this compound showed a pKi greater than 7.00. The pKi at human Src kinase (read-out: Ki value for SRC) was 5.22 to 6.00.

`c1ccc2cc(Oc3nc(Nc4cc(C5CC5)[nH]n4)c4ccccc4n3)ccc2c1` [IIb-1, (5-Cyclopropyl-2H-pyrazol-3-yl)-[2-(naphthalen-2-yloxy)-quinazolin-4-yl]-amine] came in with a melting point of 327 to 328 °C. On GSK-3β (AA 1-420), this compound had a negative-log Ki (pKi) greater than 7.00. In addition, at Aurora-2, the pKi was greater than 7.00. In addition, the pKi on human Src kinase (read-out: Ki value on SRC) was greater than 7.00.

Take `Cc1cccc(Oc2nc(Nc3cc(C4CC4)[nH]n3)c3ccccc3n2)c1` [IIb-5, (5-Cyclopropyl-2H-pyrazol-3-yl)-[2-(3-methylphenoxy)-quinazolin-4-yl]-amine]: the melting point was in the range of 283 to 284 °C. Further, the pKi at GSK-3β (AA 1-420) was greater than 7.00. The compound further had a pKi at Aurora-2 greater than 7.00. Further, the pKi at human Src kinase (read-out: Ki value on SRC) is greater than 7.00.

For `CN(Cc1cccnc1)c1nc(Nc2cc(C3CC3)[nH]n2)c2ccccc2n1` [IIc-3], the melting point was 177 °C. On GSK-3β (AA 1-420), this compound had a pKi greater than 7.00. At Aurora-2, this compound gave a pKi greater than 7.00. Besides, at human Src kinase (read-out: Ki value on SRC), the pKi is greater than 7.00.

For `Cc1cc(Nc2nc(NCC3CCCCC3)nc3ccccc23)n[nH]1` [IIc-8, (2-Cyclohexylmethylamino-quinazolin-4-yl)-(5-methyl-2H-pyrazol-3-yl)-amine], the melting point was determined as 211 °C. This compound also gave a negative logarithm of the Ki (pKi) at GSK-3β (AA 1-420) greater than 7.00. Besides, the pKi on Aurora-2 was greater than 7.00. Besides, the pKi on human Src kinase (read-out: Ki value on SRC) is greater than 7.00.

In turn, `Cc1cc(Nc2nc(NCc3cccnc3)nc3ccccc23)n[nH]1` [IIc-10, (5-Methyl-2H-pyrazol-3-yl)-[2-(pyridin-3-ylmethylamino)-quinazolin-4-yl]-amine] gave a melting point of 218 °C. Besides, at GSK-3β (AA 1-420), the pKi was greater than 7.00. At Aurora-2, this compound showed a pKi greater than 7.00. Further, the pKi on human Src kinase (read-out: Ki value on SRC) was greater than 7.00.

`Cc1cccc(Nc2nc(Nc3cc(C4CC4)[nH]n3)c3ccccc3n2)c1` [IIc-19, (5-Cyclopropyl-2H-pyrazol-3-yl)-[2-(3-methylphenylamino)-quinazolin-4-yl]-amine] gave a melting point of 117 °C. Moreover, the pKi on GSK-3β (AA 1-420) is 6.00 to 7.00. For the same compound, the pKi on Aurora-2 was greater than 7.00. Further, the pKi on human Src kinase (read-out: Ki value on SRC) was greater than 7.00.

For the compound `c1ccc2c(Nc3cc(C4CC4)[nH]n3)nc(Nc3ccc4c(c3)CCC4)nc2c1` [IIc-21, (5-Cyclopropyl-2H-pyrazol-3-yl)-[2-(indan-5-ylamino)-quinazolin-4-yl]-amine], the melting point fell in the range of 199 to 204 °C. The compound further gave a pKi at GSK-3β (AA 1-420) greater than 7.00. For the same compound, the pKi on Aurora-2 is greater than 7.00. The pKi on human Src kinase (read-out: Ki value on SRC) is greater than 7.00.

For the compound `CC(=O)Nc1ccc(Nc2nc(Nc3cc(C4CC4)[nH]n3)c3ccccc3n2)cc1C` [IIc-23, [2-(4-Acetamido-3-methylphenylamino)-quinazolin-4-yl]-(5-cyclopropyl-2H-pyrazol-3-yl)-amine], the melting point is > 188 °C (dec.). The compound further showed a pKi on GSK-3β (AA 1-420) of 6.00 to 7.00. The compound further gave a pKi at Aurora-2 greater than 7.00. For the same compound, at human Src kinase (read-out: Ki value on SRC), the pKi is greater than 7.00.

The compound `Cc1cc(Nc2nc(Nc3cc(C4CC4)[nH]n3)c3ccccc3n2)ccc1Cl` [IIc-24, [2-(4-Chloro-3-methylphenylamino)-quinazolin-4-yl]-(5-cyclopropyl-2H-pyrazol-3-yl)-amine] registered a melting point of 244 to 246 °C. Moreover, the pKi on GSK-3β (AA 1-420) was greater than 7.00. This compound also showed a pKi at Aurora-2 greater than 7.00. Further, the pKi at human Src kinase (read-out: Ki value on SRC) is greater than 7.00.

In turn, `Cc1ccc(Nc2nc(Nc3cc(C4CC4)[nH]n3)c3ccccc3n2)cc1C` [IIc-33, (5-Cyclopropyl-2H-pyrazol-3-yl)-[2-(3,4-dimethylphenylamino)-quinazolin-4-yl]-amine] returned a melting point of 245 to 246 °C. The same compound gave a negative logarithm of the Ki (pKi) at GSK-3β (AA 1-420) of 6.00 to 7.00. In addition, at Aurora-2, the pKi is greater than 7.00. Also, the pKi on human Src kinase (read-out: Ki value on SRC) is greater than 7.00.

The compound `c1ccc(OCCNc2nc(Nc3cc(C4CC4)[nH]n3)c3ccccc3n2)cc1` [IIc-34, (5-Cyclopropyl-2H-pyrazol-3-yl)-[2-(2-phenoxyethylamino)-quinazolin-4-yl]-amine] showed a melting point of 203 °C. The same compound showed a pKi on GSK-3β (AA 1-420) of 6.00 to 7.00. This compound showed a negative-log Ki (pKi) on Aurora-2 greater than 7.00. The pKi at human Src kinase (read-out: Ki value on SRC) is greater than 7.00.

On to `c1csc(CNc2nc(Nc3cc(C4CC4)[nH]n3)c3ccccc3n2)c1` [IIc-35, (5-Cyclopropyl-2H-pyrazol-3-yl)-[2-(thiophen-2-methylamino)-quinazolin-4-yl]-amine], for which the melting point came out at 212 °C. On GSK-3β (AA 1-420), the negative-log Ki (pKi) was greater than 7.00. Further, at Aurora-2, the pKi is greater than 7.00. Further, at human Src kinase (read-out: Ki value on SRC), the pKi is greater than 7.00.

As to `c1cncc(CNc2nc(Nc3cc(C4CC4)[nH]n3)c3ccccc3n2)c1` [IIc-38, (5-Cyclopropyl-2H-pyrazol-3-yl)-[2-(pyridin-3-ylmethylamino)-quinazolin-4-yl]-amine], the melting point was 193 °C. This compound also showed a negative-log Ki (pKi) on GSK-3β (AA 1-420) greater than 7.00. Also, the pKi on Aurora-2 is greater than 7.00. For the same compound, on human Src kinase (read-out: Ki value on SRC), the pKi is greater than 7.00.

`CCc1cccc(Nc2nc(Nc3cc(C4CC4)[nH]n3)c3ccccc3n2)c1` [IIc-41, (5-Cyclopropyl-2H-pyrazol-3-yl)-[2-(3-ethylphenylamino)-quinazolin-4-yl]-amine] returned a melting point of 186 to 188 °C. At GSK-3β (AA 1-420), this compound gave a negative-log Ki (pKi) of 6.00 to 7.00. Further, the pKi on Aurora-2 is greater than 7.00. For the same compound, on human Src kinase (read-out: Ki value on SRC), the pKi is greater than 7.00.
